Test results reported in the supplement of paper PMC10307832.

Tests used:
Test in all cases: relative viability (nuclei count vs DMSO), 5 days (fraction); higher = more cells survive
[1] = compound: C1CC1C(=O)NC2=NNC3=C2C=CC(=C3)C4=CC(=CC=C4)C(=O)NC5CC5 [XMD13-2] + COc1cccc2cc(-c3nc([C@H]4CC[C@H](C(=O)O)CC4)n4ncnc(N)c34)[nH]c12 [OSI-027] (partner 0.5 µM)
How it was run: (§1)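 Each reported value is a median over duplicate plates. It expresses relative viability: treated-well nuclei count divided by vehicle-well nuclei count. Lung cancer cell lines in 1536-well plates were dosed by pin tool a day after seeding, alone with one drug or with a fixed anchor-drug dose plus five library-drug doses (not always all listed) in √10 steps, and nuclei were counted after 5 days.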

[2] = compound: Cc1ccc(C(=O)Nc2cccc(C(F)(F)F)c2)cc1Nc1cncc(C(N)=O)c1 [ALW-II-49-7] + COc1cc2c(Oc3ccc(NC(=O)C4(C(=O)Nc5ccc(F)cc5)CC4)cc3F)ccnc2cc1OCCCN1CCOCC1 [Foretinib] (partner 0.25 µM)
How it was run: as §1

[3] = compound: Cc1ccc(C(=O)Nc2cccc(C(F)(F)F)c2)cc1Nc1cncc(C(N)=O)c1 [ALW-II-49-7] + Nc1ncn([C@H]2C[C@H](O)[C@@H](CO)O2)c(=O)n1 [Decitabine] (partner 2 µM)
How it was run: as §1

[4] = compound: Cc1nc(Nc2ncc(C(=O)Nc3c(C)cccc3Cl)s2)cc(N2CCN(CCO)CC2)n1 [Dasatinib] + Nc1ncn([C@H]2C[C@H](O)[C@@H](CO)O2)c(=O)n1 [Decitabine] (partner 2 µM)
How it was run: as §1

Row | Cell Line | relative viability ([1]; first compound 0.05 µM) | relative viability ([1]; first compound 0.1581 µM) | relative viability ([1]; first compound 0.5 µM) | relative viability ([1]; first compound 1.581 µM) | relative viability ([1]; first compound 5 µM) | relative viability ([2]; first compound 0.08 µM) | relative viability ([2]; first compound 0.253 µM) | relative viability ([2]; first compound 2.53 µM) | relative viability ([2]; first compound 8 µM) | relative viability ([3]; first compound 0.08 µM) | relative viability ([3]; first compound 0.253 µM) | relative viability ([3]; first compound 0.8 µM) | relative viability ([3]; first compound 2.53 µM) | relative viability ([3]; first compound 8 µM) | relative viability ([4]; first compound 0.005 µM) | relative viability ([4]; first compound 0.01581 µM) | relative viability ([4]; first compound 0.05 µM) | relative viability ([4]; first compound 0.1581 µM) | relative viability ([4]; first compound 0.5 µM) | relative viability ([2]; first compound 0.8 µM)
1 | HCC-78 | 0.432 | 0.394 | 0.317 | 0.38 | 0.345 | 0.524 | 0.487 | 0.528 | 0.586 | 0.68 | 0.639 | 0.71 | 0.666 | 0.619 | 0.615 | 0.608 | 0.599 | 0.429 | 0.326 | –
2 | HCC-366 | 1.02 | 0.598 | 1.15 | 0.888 | 0.983 | 1 | 1.02 | 1 | 1.08 | 0.354 | 0.371 | 0.374 | 0.385 | 0.307 | 0.354 | 0.262 | 0.247 | 0.188 | 0.215 | 0.941
3 | HCC-827 | 0.911 | 0.747 | 0.708 | 0.753 | 0.675 | 1.02 | 1.13 | 0.954 | 1.02 | 0.294 | 0.307 | 0.335 | 0.331 | 0.271 | 0.35 | 0.271 | 0.309 | 0.224 | 0.159 | 1.07
4 | HOP-62 | 0.998 | 0.896 | 0.783 | 0.895 | 0.792 | 1.22 | 1.14 | 0.935 | 0.837 | 0.207 | 0.286 | 0.165 | 0.223 | 0.285 | 0.218 | 0.227 | 0.261 | 0.23 | 0.191 | 1.17
5 | IA-LM | – | – | – | – | – | 1.06 | 0.999 | 1.02 | 0.416 | – | – | – | – | – | – | – | – | – | – | 1.28
6 | LC-2-ad | 0.86 | 0.78 | 0.972 | 0.723 | 0.67 | 0.863 | 0.881 | 0.559 | 0.905 | 0.84 | 0.845 | 0.861 | 0.8 | 0.863 | 0.745 | 0.822 | 0.781 | 0.744 | 0.393 | 0.929
7 | LCLC-97TM1 | 0.612 | 0.404 | 0.603 | 0.433 | 0.445 | 0.869 | 0.894 | 0.939 | 0.933 | 0.256 | 0.201 | 0.252 | 0.236 | 0.207 | 0.203 | 0.224 | 0.283 | 0.177 | 0.144 | 1.06
8 | LCLC-103H | 0.588 | 0.497 | 0.47 | 0.509 | 0.506 | 0.707 | 0.832 | 0.735 | 0.77 | 0.757 | 0.781 | 0.726 | 0.727 | 0.684 | 0.69 | 0.7 | 0.737 | 0.625 | 0.446 | 0.926
9 | LK-2 | 0.236 | 0.151 | 0.191 | 0.239 | 0.216 | – | 0.884 | 0.958 | 1.31 | 0.393 | 0.288 | 0.301 | – | 0.252 | 0.265 | 0.308 | 0.174 | 0.159 | 0.174 | 1.27
